Patent publication US20230083015A1, “SMALL MOLECULE DEGRADERS OF STAT3” (THE REGENTS OF THE UNIVERSITY OF MICHIGAN, priority 2019, published 2023)
Read-outs that look alike come from different tables or passages of the source.

Key:
STAT3 = STAT3 (Homo sapiens, UniProt P40763); assay: Estimated DC50 for STAT3 degradation in MOLM-16 cells (immunoblotting); assay type: cell-based; set-up: In vitro cultured cells or xenograft tumors were lysed; endogenous in cells; host or cells: MOLM-16
Method: (§1) FIG. 62 is a series of four images showing the fluorescent immunoblotting analysis of STAT1 and STAT3 protein in Molm-16 cells after treatment for 4 h with Cpd. Nos. 331, 296, 361, 362, 363, 364, 365, 366, and 367 at the concentrations indicated.
(§2) In vitro cultured cells or xenograft tumors were lysed 1× Cell Lysis Buffer (Cell Signaling Technology, #9803), resolved by SDS-PAGE NuPAGE gel (Thermo Fisher Scientific), and transferred to a PVDF membrane (Bio Rad). For chemiluminescence immunoblotting, membranes were blocked for 1 h using 5% Blotting-Grade Blocker (#1706404, Bio Rad) in 1× Tris-buffered saline with Tween 20 (TBST, Pierce). Antibodies used were: rabbit mAbs for STAT3 (Cell Signaling Technology, #4368, #12640) and p-STAT3 (Y705) (Cell Signaling Technology, #9245, #52075). HRP conjugated goat anti-rabbit IgG (H+L) (#A27036) secondary antibodies was from Thermo Fisher Scientific. GAPDH (Santa Cruz Technology, sc-47724HRP) and actin (Santa Cruz Technology, sc-8432HRP, sc-47778HRP) were loading controls. For fluorescent immunoblotting, membranes were blocked using Odyssey TBS Blocker Buffer (LI-COR). IRDye 680RD and 800CW Dye-labeled secondary antibodies (LI-COR) were used. The washed membranes were scanned using Odyssey CLx imager (LI-COR). The intensity of Western blot signaling was quantitated using the Odyssey software.
(§3) The estimated DC50 in MOLM-16 cells of representative Compounds of the Disclosure against STAT3 and STAT1 is provide in Table 5.

STAT1 = molecular target: T1, STAT1 (Homo sapiens, UniProt P42224); assay: Estimated DC50 for STAT1 degradation in MOLM-16 cells (immunoblotting); assay type: cell-based
T1 construct: In vitro cultured cells or xenograft tumors were lysed; endogenous in cells; host or cells: MOLM-16
T1 sequence (P42224 1-750): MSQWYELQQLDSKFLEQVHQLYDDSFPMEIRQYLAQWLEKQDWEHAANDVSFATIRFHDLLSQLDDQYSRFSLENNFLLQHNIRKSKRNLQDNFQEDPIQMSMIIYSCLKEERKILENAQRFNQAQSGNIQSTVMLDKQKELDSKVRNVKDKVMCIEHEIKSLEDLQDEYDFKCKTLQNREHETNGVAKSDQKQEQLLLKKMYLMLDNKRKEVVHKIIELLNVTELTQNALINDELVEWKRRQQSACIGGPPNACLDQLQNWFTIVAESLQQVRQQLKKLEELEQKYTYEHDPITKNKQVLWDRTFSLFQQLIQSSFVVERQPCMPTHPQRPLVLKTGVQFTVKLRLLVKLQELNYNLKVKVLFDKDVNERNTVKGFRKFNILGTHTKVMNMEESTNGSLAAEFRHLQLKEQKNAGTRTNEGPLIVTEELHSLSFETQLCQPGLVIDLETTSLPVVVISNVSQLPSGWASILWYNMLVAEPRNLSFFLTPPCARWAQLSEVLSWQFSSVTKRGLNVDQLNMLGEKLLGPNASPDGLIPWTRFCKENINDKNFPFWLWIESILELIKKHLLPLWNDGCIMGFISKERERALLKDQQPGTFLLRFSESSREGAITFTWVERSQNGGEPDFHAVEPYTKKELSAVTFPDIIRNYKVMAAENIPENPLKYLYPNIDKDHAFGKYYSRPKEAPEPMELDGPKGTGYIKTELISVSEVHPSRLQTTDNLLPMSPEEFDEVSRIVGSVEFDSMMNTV
Method: as §1, §2, §3

[1] = MOLM-16, 4 h; read-out: Estimated DC50 STAT3
[2] = MOLM-16, 4 h; read-out: Estimated DC50 STAT1

Sequence of STAT3 (P40763 whole entry): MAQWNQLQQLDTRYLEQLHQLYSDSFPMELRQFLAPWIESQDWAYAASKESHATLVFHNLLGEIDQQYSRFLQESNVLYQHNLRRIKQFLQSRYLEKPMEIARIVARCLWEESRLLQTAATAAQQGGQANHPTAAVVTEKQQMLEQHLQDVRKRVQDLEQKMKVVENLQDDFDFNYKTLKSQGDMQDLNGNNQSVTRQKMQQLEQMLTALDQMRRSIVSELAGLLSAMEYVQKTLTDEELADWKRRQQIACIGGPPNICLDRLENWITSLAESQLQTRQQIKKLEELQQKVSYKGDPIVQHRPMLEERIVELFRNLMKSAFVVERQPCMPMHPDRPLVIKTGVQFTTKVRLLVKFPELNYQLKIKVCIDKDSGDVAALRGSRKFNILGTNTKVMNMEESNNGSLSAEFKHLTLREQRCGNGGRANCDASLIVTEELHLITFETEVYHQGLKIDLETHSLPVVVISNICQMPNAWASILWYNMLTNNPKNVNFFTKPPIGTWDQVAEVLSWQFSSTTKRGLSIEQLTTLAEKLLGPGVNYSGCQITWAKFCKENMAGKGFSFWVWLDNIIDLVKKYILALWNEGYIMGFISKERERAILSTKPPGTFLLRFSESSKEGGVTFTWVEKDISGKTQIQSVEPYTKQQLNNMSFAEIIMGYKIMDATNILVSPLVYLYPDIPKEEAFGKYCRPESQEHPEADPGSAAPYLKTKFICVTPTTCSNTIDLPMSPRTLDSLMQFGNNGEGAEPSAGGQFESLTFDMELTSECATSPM

SMILES	DC50 (STAT3; [1])	DC50 (STAT1; read-out: Estimated DC50 STAT1; MOLM-16, 4 h)	DC50 (STAT3; read-out: Estimated DC50 STAT3; MOLM-16, 4 h)	DC50 (STAT1; [2])
NC(=O)CC[C@H](NC(=O)[C@@H]1CC[C@@H]2CCN(C(=O)CCCCCC#Cc3cccc4c3CN(C3CCC(=O)NC3=O)C4=O)C[C@H](NC(=O)c3cc4cc(C(F)(F)P(=O)(O)O)ccc4s3)C(=O)N21)C(=O)NC(Cc1ccccc1)Cc1ccccc1 (stereo partly drawn) [Cpd. No. 349, ((2-(((5S,8S,10aR)-8-(((S)-5-amino-1-((1,3-diphenylpropan-2-yl)amino)-1,5-dioxopentan-2-yl)carbamoyl)-3-(8-(2-(2,6-dioxopiperidin-3-yl)-1-oxoisoindolin-4-yl)oct-7-ynoyl)-6-oxodecahydropyrrolo[1,2-a][1,5]diazocin-5-yl)carbamoyl)benzo[b]thiophen-5-yl)difluoromethyl) phosphonic acid]	200 nM	–	–	–
CCN1CC[C@H]2CC[C@@H](C(=O)N[C@@H](CCC(N)=O)C(=O)N[C@@H](Cc3ccc(S(=O)(=O)c4ccccc4)cc3)C(=O)N3CCC(CCC#Cc4cccc5c4CN(C4CCC(=O)NC4=O)C5=O)CC3)N2C(=O)[C@@H](NC(=O)c2cc3cc(C(F)(F)P(=O)(O)O)ccc3s2)C1 (some centres unmarked) [Cpd. No. 352]	–	250 nM	< 250 nM	–
CCN1CC[C@H]2CC[C@@H](C(=O)N[C@@H](CCC(N)=O)C(=O)N[C@@H](Cc3ccc(S(=O)(=O)C4CC4)cc3)C(=O)N3CCC(CCC#Cc4cccc5c4CN(C4CCC(=O)NC4=O)C5=O)CC3)N2C(=O)[C@@H](NC(=O)c2cc3cc(C(F)(F)P(=O)(O)O)ccc3s2)C1 (stereo partly drawn) [Cpd. No. 353, ((2-(((5S,8S,10aR)-8-(((2S)-5-amino-1-(((2S)-3-(4-(cyclopropylsulfonyl)phenyl)-1-(4-(4-(2-(2,6-dioxopiperidin-3-yl)-1-oxoisoindolin-4-yl)but-3-yn-1-yl)piperidin-1-yl)-1-oxopropan-2-yl)amino)-1,5-dioxopentan-2-yl)carbamoyl)-3-ethyl-6-oxodecahydropyrrolo[1,2-a][1,5]diazocin-5-yl)carbamoyl)benzo[b]thiophen-5-yl)difluoromethyl)phosphonic Acid]	< 250 nM	–	–	500 nM
CCN1CC[C@H]2CC[C@@H](C(=O)N[C@@H](CCC(N)=O)C(=O)N[C@@H](Cc3ccc(NS(=O)(=O)c4ccc(C)cc4)cc3)C(=O)N3CCC(CCC#Cc4cccc5c4CN(C4CCC(=O)NC4=O)C5=O)CC3)N2C(=O)[C@@H](NC(=O)c2cc3cc(C(F)(F)P(=O)(O)O)ccc3s2)C1 (stereo partly drawn) [Cpd. No. 354, ((2-(((5S,8S,10aR)-8-(((2S)-5-amino-1-(((2S)-1-(4-(4-(2-(2,6-dioxopiperidin-3-yl)-1-oxoisoindolin-4-yl)but-3-yn-1-yl)piperidin-1-yl)-3-(4-((4-methylphenyl)sulfonamido)phenyl)-1-oxopropan-2-yl)amino)-1,5-dioxopentan-2-yl)carbamoyl)-3-ethyl-6-oxodecahydropyrrolo[1,2-a][1,5]diazocin-5-yl)carbamoyl)benzo[b]thiophen-5-yl)difluoromethyl)phosphonic Acid]	< 250 nM	–	–	250 nM
CCN1CC[C@H]2CC[C@@H](C(=O)N[C@@H](CCC(N)=O)C(=O)N[C@@H](Cc3ccc(NS(=O)(=O)c4ccc(C5CCCCC5)cc4)cc3)C(=O)N3CCC(CCC#Cc4cccc5c4CN(C4CCC(=O)NC4=O)C5=O)CC3)N2C(=O)[C@@H](NC(=O)c2cc3cc(C(F)(F)P(=O)(O)O)ccc3s2)C1 (stereo partly drawn) [Cpd. No. 357, ((2-(((5S,8S,10aR)-8-(((2S)-5-amino-1-(((2S)-3-(4-((4-cyclohexylphenyl)sulfonamido)phenyl)-1-(4-(4-(2-(2,6-dioxopiperidin-3-yl)-1-oxoisoindolin-4-yl)but-3-yn-1-yl)piperidin-1-yl)-1-oxopropan-2-yl)amino)-1,5-dioxopentan-2-yl)carbamoyl)-3-ethyl-6-oxodecahydropyrrolo[1,2-a][1,5]diazocin-5-yl)carbamoyl)benzo[b]thiophen-5-yl)difluoromethyl) phosphonic acid]	500 nM	–	–	> 1000 nM
CCN1CC[C@H]2CC[C@@H](C(=O)N[C@@H](CCC(N)=O)C(=O)N[C@@H](Cc3ccc(C(=O)NC4CCOCC4)cc3)C(=O)N3CCC(CCC#Cc4cccc5c4CN(C4CCC(=O)NC4=O)C5=O)CC3)N2C(=O)[C@@H](NC(=O)c2cc3cc(C(F)(F)P(=O)(O)O)ccc3s2)C1 (stereo partly drawn) [Cpd. No. 359, ((2-(((5S,8S,10aR)-8-(((2S)-5-amino-1-(((2S)-1-(4-(4-(2-(2,6-dioxopiperidin-3-yl)-1-oxoisoindolin-4-yl)but-3-yn-1-yl)piperidin-1-yl)-1-oxo-3-(4-((tetrahydro-2H-pyran-4-yl)carbamoyl)phenyl)propan-2-yl)amino)-1,5-dioxopentan-2-yl)carbamoyl)-3-ethyl-6-oxodecahydropyrrolo[1,2-a][1,5]diazocin-5-yl)carbamoyl)benzo[b]thiophen-5-yl)difluoromethyl)phosphonic Acid]	1000 nM	–	–	> 1000 nM
CCN1CC[C@H]2CC[C@@H](C(=O)N[C@@H](CCC(N)=O)C(=O)N[C@@H](Cc3ccc(C(=O)NCC4CCN(C)CC4)cc3)C(=O)N3CCC(CCC#Cc4cccc5c4CN(C4CCC(=O)NC4=O)C5=O)CC3)N2C(=O)[C@@H](NC(=O)c2cc3cc(C(F)(F)P(=O)(O)O)ccc3s2)C1 (stereo partly drawn) [Cpd. No. 360, ((2-(((5S,8S,10aR)-8-(((2S)-5-amino-1-(((2S)-1-(4-(4-(2-(2,6-dioxopiperidin-3-yl)-1-oxoisoindolin-4-yl)but-3-yn-1-yl)piperidin-1-yl)-3-(4-(((1-methylpiperidin-4-yl)methyl)carbamoyl)phenyl)-1-oxopropan-2-yl)amino)-1,5-dioxopentan-2-yl)carbamoyl)-3-ethyl-6-oxodecahydropyrrolo [1,2-a][1,5]diazocin-5-yl)carbamoyl)benzo [b]thiophen-5-yl)difluoromethyl) phosphonic acid]	> 1000 nM	–	–	> 1000 nM
COC(=O)N1CC[C@H]2CC[C@@H](C(=O)N[C@@H](CCC(N)=O)C(=O)N[C@@H](Cc3ccc(C(C)(C)C)cc3)C(=O)N3CCC(CCC#Cc4cccc5c4CN(C4CCC(=O)NC4=O)C5=O)CC3)N2C(=O)[C@@H](NC(=O)c2cc3cc(C(F)(F)P(=O)(O)O)ccc3s2)C1 (stereo partly drawn) [Cpd. No. 361, ((2-(((5S,8S,10aR)-8-(((2S)-5-amino-1-(((2S)-3-(4-(tert-butyl)phenyl)-1-(4-(4-(2-(2,6-dioxopiperidin-3-yl)-1-oxoisoindolin-4-yl)but-3-yn-1-yl)piperidin-1-yl)-1-oxopropan-2-yl)amino)-1,5-dioxopentan-2-yl)carbamoyl)-3-(methoxycarbonyl)-6-oxodecahydropyrrolo[1,2-a][1,5]diazocin-5-yl)carbamoyl)benzo[b]thiophen-5-yl)difluoromethyl) phosphonic acid]	< 250 nM	–	–	250 nM
CC(C)(C)c1ccc(C[C@H](NC(=O)[C@H](CCC(N)=O)NC(=O)[C@@H]2CC[C@@H]3CCN(CC(F)F)C[C@H](NC(=O)c4cc5cc(C(F)(F)P(=O)(O)O)ccc5s4)C(=O)N32)C(=O)N2CCC(CCC#Cc3cccc4c3CN(C3CCC(=O)NC3=O)C4=O)CC2)cc1 (stereo partly drawn) [Cpd. No. 362, ((2-(((5S,8S,10aR)-8-(((2S)-5-amino-1-(((2S)-3-(4-(tert-butyl)phenyl)-1-(4-(4-(2-(2,6-dioxopiperidin-3-yl)-1-oxoisoindolin-4-yl)but-3-yn-1-yl)piperidin-1-yl)-1-oxopropan-2-yl)amino)-1,5-dioxopentan-2-yl)carbamoyl)-3-(2,2-difluoroethyl)-6-oxodecahydropyrrolo[1,2-a][1,5]diazocin-5-yl)carbamoyl)benzo[b]thiophen-5-yl)difluoromethyl) phosphonic acid]	< 250 nM	–	–	< 250 nM
